From the supplement of paper PMC11061612

Legend:
Test in all cases: Bliss excess, mean over the matrix (fraction); higher = more synergy
[1] = system: OSC-20 (Oral Cavity Carcinoma)
How it was run: (§1)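 After 24 hours at 37°C and 5% CO2 in 1536-well plates, cells in DMEM/F12 or RPMI plus 10% FBS received two-drug dose matrices for 72 hours. Viability came from CellTiter-Glo 2.0 luminescence and was scaled as inhibition, anchored at 0 by vehicle wells and at 1 by blank wells. Combination Emax is taken as the second-highest inhibition in the matrix, and Bliss excess as the observed combination effect less EA + EB − EA·EB, with EA and EB the single-agent effects.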

PWR-1E (Non-Cancerous) = system: PWR-1E (Non-Cancerous)
How it was run: as §1

[2] = system: KMOE-2 (Acute Myeloid Leukemia)
How it was run: as §1

[3] = system: NUGC-3 (Gastric Carcinoma)
How it was run: as §1

| SMILES | Bliss excess [1] | Bliss excess (PWR-1E (Non-Cancerous)) | Bliss excess [2] | Bliss excess [3] |
| --- | --- | --- | --- | --- |
| CN(CCO)CC[C@H](CSc1ccccc1)Nc1ccc(S(=O)(=O)NC(=O)c2ccc(N3CCC([C@@H](O)c4ccccc4-c4ccc(Cl)cc4)CC3)cc2)cc1S(=O)(=O)C(F)(F)F [AZD4320] + Cc1cc2ncnn2cc1Nc1ncc2c(n1)n(C1CCOCC1)c(=O)n2C [AZD7648] (first compound max 1 µM, 7x7, partner max 10 µM) | -0.0548 | -0.0352 | -0.0058 | -0.0234 |
| C[C@@H](c1ccc2nccn2c1)n1nnc2ncc(-c3cnn(C)c3)nc21 [Savolitinib] + Cc1c2c(nn1C)CSCc1cc(n(C)n1)CSc1cc(c3ccccc3c1)OCCCc1c(C(=O)O)n(C)c3c-2c(Cl)ccc13 [AZD5991] (first compound max 1 µM, 7x7, partner max 1 µM) | -0.0239 | -0.0664 | -0.0312 | -0.0379 |
| CN(CCO)CC[C@H](CSc1ccccc1)Nc1ccc(S(=O)(=O)NC(=O)c2ccc(N3CCC([C@@H](O)c4ccccc4-c4ccc(Cl)cc4)CC3)cc2)cc1S(=O)(=O)C(F)(F)F [AZD4320] + C[C@@H](Nc1cc(F)cc(F)c1)c1cc(C(=O)N(C)C)cc2c(=O)cc(N3CCOCC3)oc12 [AZD8186] (first compound max 1 µM, 7x7, partner max 3 µM) | 0.0146 | -0.0097 | 0.0407 | -0.0383 |
| Cc1cc2ncnn2cc1Nc1ncc2c(n1)n(C1CCOCC1)c(=O)n2C [AZD7648] + CN(C)CCCOc1ccc(-c2ccc3ncc4c(c3c2)n(C2CCOCC2)c(=O)n4C)cn1 [AZD0156] (first compound max 10 µM, 7x7, partner max 1 µM) | -0.0082 | 0.0532 | 0.0226 | -0.0262 |
| CN(CCO)CC[C@H](CSc1ccccc1)Nc1ccc(S(=O)(=O)NC(=O)c2ccc(N3CCC([C@@H](O)c4ccccc4-c4ccc(Cl)cc4)CC3)cc2)cc1S(=O)(=O)C(F)(F)F [AZD4320] + Cn1cnc2c(F)c(Nc3ccc(Br)cc3Cl)c(C(=O)NOCCO)cc21 [Selumetinib] (first compound max 1 µM, 7x7, partner max 3 µM) | 0.0488 | 0.0024 | 0.0415 | 0.104 |
| Cc1cc2ncnn2cc1Nc1ncc2c(n1)n(C1CCOCC1)c(=O)n2C [AZD7648] + C=CCn1c(=O)c2cnc(Nc3ccc(N4CCN(C)CC4)cc3)nc2n1-c1cccc(C(C)(C)O)n1 [AZD1775] (first compound max 10 µM, partner max 1 µM) | -0.0252 | 0.0256 | -0.0329 | 0.0165 |
| CN(CCO)CC[C@H](CSc1ccccc1)Nc1ccc(S(=O)(=O)NC(=O)c2ccc(N3CCC([C@@H](O)c4ccccc4-c4ccc(Cl)cc4)CC3)cc2)cc1S(=O)(=O)C(F)(F)F [AZD4320] + C=CCn1c(=O)c2cnc(Nc3ccc(N4CCN(C)CC4)cc3)nc2n1-c1cccc(C(C)(C)O)n1 [AZD1775] (first compound max 1 µM, partner max 1 µM) | -0.0933 | -0.0111 | 0.0656 | -0.0346 |
| Cc1cc2ncnn2cc1Nc1ncc2c(n1)n(C1CCOCC1)c(=O)n2C [AZD7648] + C[C@@H]1COCCN1C2=NC(=NC(=C2)C3(CC3)[S@](=N)(=O)C)C4=C5C=CNC5=NC=C4 [AZD6738] (first compound max 10 µM, 7x7, partner max 10 µM) | 0.0065 | -0.109 | 0.0035 | -0.0657 |
| Cc1cc2ncnn2cc1Nc1ncc2c(n1)n(C1CCOCC1)c(=O)n2C [AZD7648] + CCN(CCO)CCCOc1ccc2c(Nc3cc(CC(=O)Nc4cccc(F)c4)[nH]n3)ncnc2c1 [AZD2811] (first compound max 10 µM, 7x7, partner max 1 µM) | -0.0209 | 0.0299 | 0.0325 | -0.0046 |
| CN(CCO)CC[C@H](CSc1ccccc1)Nc1ccc(S(=O)(=O)NC(=O)c2ccc(N3CCC([C@@H](O)c4ccccc4-c4ccc(Cl)cc4)CC3)cc2)cc1S(=O)(=O)C(F)(F)F [AZD4320] + CCN(CCO)CCCOc1ccc2c(Nc3cc(CC(=O)Nc4cccc(F)c4)[nH]n3)ncnc2c1 [AZD2811] (first compound max 1 µM, 7x7, partner max 1 µM) | -0.062 | 0.0514 | 0.0171 | 0.0077 |
| COc1cc2c(cc1OCCCCCOc1cc3c(cc1OC)C(=O)N1C=C(C)C[C@H]1C=N3)N=C[C@@H]1CC(C)=CN1C2=O [SG3199] + O=C(c1cc(Cc2n[nH]c(=O)c3ccccc23)ccc1F)N1CCN(C(=O)C2CC2)CC1 [Olaparib] (first compound max 0.001 µM, 7x7, partner max 10 µM) | -0.0319 | -0.0258 | -0.0283 | -0.0332 |
| Cc1cc2ncnn2cc1Nc1ncc2c(n1)n(C1CCOCC1)c(=O)n2C [AZD7648] + O=C(c1cc(Cc2n[nH]c(=O)c3ccccc23)ccc1F)N1CCN(C(=O)C2CC2)CC1 [Olaparib] (first compound max 10 µM, 7x7, partner max 10 µM) | 0.0194 | -0.0005 | -0.0066 | -0.0175 |
| CN(CCO)CC[C@H](CSc1ccccc1)Nc1ccc(S(=O)(=O)NC(=O)c2ccc(N3CCC([C@@H](O)c4ccccc4-c4ccc(Cl)cc4)CC3)cc2)cc1S(=O)(=O)C(F)(F)F [AZD4320] + C1CN(CCC1(C(=O)N[C@@H](CCO)C2=CC=C(C=C2)Cl)N)C3=NC=NC4=C3C=CN4 [Capivasertib] (first compound max 1 µM, 7x7, partner max 3 µM) | -0.0513 | -0.0067 | -0.0435 | -0.039 |
| Cc1nc(Nc2ncc(C(=O)Nc3c(C)cccc3Cl)s2)cc(N2CCN(CCO)CC2)n1 [Dasatinib] + CC(=O)Nc1cccc(-n2c(=O)n(C3CC3)c(=O)c3c(Nc4ccc(I)cc4F)n(C)c(=O)c(C)c32)c1 [Trametinib] (first compound max 2 µM, 7x7, partner max 1 µM) | -0.0148 | 0.0481 | -0.0125 | 0.0374 |
| COc1cc2ncnc(Nc3ccc(F)c(Cl)c3)c2cc1OCCCN1CCOCC1 [Gefitinib] + CC(C)n1c(=O)n(C)c2cnc3cc(F)c(-c4ccc(OCCCN5CCCCC5)nc4)cc3c21 [AZD1390] (first compound max 10 µM, 7x7, partner max 0.3 µM) | -0.0691 | -0.0234 | -0.0589 | -0.0515 |
| C[C@@H](c1ccc2nccn2c1)n1nnc2ncc(-c3cnn(C)c3)nc21 [Savolitinib] + CC1(C)CCC(CN2CCN(c3ccc(C(=O)NS(=O)(=O)c4ccc(NCC5CCOCC5)c([N+](=O)[O-])c4)c(Oc4cnc5[nH]ccc5c4)c3)CC2)=C(c2ccc(Cl)cc2)C1 [Venetoclax] (first compound max 1 µM, 7x7, partner max 1 µM) | -0.0521 | -0.034 | -0.0414 | -0.0666 |
| CN(CCO)CC[C@H](CSc1ccccc1)Nc1ccc(S(=O)(=O)NC(=O)c2ccc(N3CCC([C@@H](O)c4ccccc4-c4ccc(Cl)cc4)CC3)cc2)cc1S(=O)(=O)C(F)(F)F [AZD4320] + C[C@@H]1COCCN1C2=NC(=NC(=C2)C3(CC3)[S@](=N)(=O)C)C4=C5C=CNC5=NC=C4 [AZD6738] (first compound max 1 µM, 7x7, partner max 10 µM) | -0.0694 | -0.0313 | -0.0399 | -0.0445 |
